In PMC10059083, “Design, Synthesis, and Biological Evaluation of Novel Hydroxamic Acid-Based Organoselenium Hybrids” (Pharmaceuticals, 2023):
Converted amounts (≈) assume the structure as drawn. “And” between values parts separate entries of the source, which are not always exact repeats. Identical values can stand only once.

Tests used:
WI-38 cells = experiment: MTT cytotoxicity assay, normal lung fibroblast WI-38 cells; format: cell-based; settings: Homo sapiens, WI-38, 24 h, read-out: WI38 IC50
Source text: Recently, OSe agents have attracted interest due to their potential chemoprotective and antitumor properties. […] Therefore, we estimated the OSe agents’ antiproliferative activities against different cancer cells, i.e., MCF-7 and HepG2 cells and healthy lung fibroblast WI-38 cells, using the MTT assay. The drug doxorubicin was employed as the standard. The corresponding therapeutic indices (TI) are described as the proportion of the WI38 cells IC50 to the IC50 of the cancer cell (e.g., MCF-7 and HepG2) (Table 1).
The products’ anticancer activity was examined using the MTT assay against breast (MCF-7) carcinoma cells, liver (HepG2), and normal WI-38 cells, following the previously reported method. Experimental details can be found in the Supplementary Materials.
1.1. The biological assays
1.1.1. The anticancer activity
The breast adenocarcinoma (MCF-7), Hepatocellular carcinoma (HEPG-2), and normal fibroblast (WI-38) cells were obtained from ATCC via Holding company for biological products and vaccines (VACSERA), Cairo, Egypt. The reagents […] medium, MTT, DMSO, and fetal bovine serum was obtained from Sigma Aldrich. Dulbecco’s modified Eagle’s medium was used as the culture medium for the cells, and the cytotoxicity was evaluated using the reported MTT assay. Doxorubicin was used as the positive reference, and the IC50 values were obtained from the corresponding dose-response curve.
This colorimetric assay is based on converting the yellow tetrazolium bromide (MTT) to a purple formazan derivative by mitochondrial succinate dehydrogenase in viable cells. Cell lines were cultured in […] medium with 10% fetal bovine serum. Antibiotics added were 100 units/ml penicillin and 100µg/ml streptomycin at 37 C in a 5% Co2 incubator. The cell lines were seeded in a 96-well plate at a density of 1.0x10^4 cells/well. at 37 C for 48 h under 5% Co2. After incubation, the cells were treated with different concentrations of compounds and incubated for 13 […]
Finally, dimethyl sulfoxide (DMSO) in the volume of 100 µl is added to each well to dissolve the purple formazan formed. The colorimetric assay is measured and recorded at an absorbance of 570 […]
The percentage of the relative cell viability was calculated as (A570 of treated samples/A570 of the untreated sample) X 100. […]

E. coli = experiment: Agar diffusion assay, E. coli; format: cell-based, Escherichia coli
Source text: (§1) The encouraging antitumor properties of the OSe compounds motivated us to evaluate their corresponding antimicrobial activities against the C. albicans fungal strain, S. aureus Gram-positive bacteria, and E. coli Gram-negative bacteria. Therefore, we applied the agar diffusion and minimum inhibitory concentration (MIC) methods using clotrimazole antifungal and ampicillin antibacterial drugs as standards.
(§2) The products’ antimicrobial properties were examined according to the previously reported method, via agar well diffusion assay against E. coli, S. aureus, and C. albicans. A microdilution method was also used to record MICs (M), following the previously reported procedure. Experimental details can be found in the Supplementary Materials.
1.1. […]
1.1.2. The antimicrobial activity
The antimicrobial activities of the OSe compounds were evaluate d against C. albicans yeast as well as E.
coli gram-negative and S. aureus gram-positive bacteria employing the agar well diffusion assay. […]
5 g, and beef extract 3 g) seeded with the dedicated strain. Incubation lasted for 13 h at 36 0C.
Experiments were replicated three times and the antifungal clotrimazole and antibiotic ampicillin
1.1.3. […]

S. aureus = experiment: MIC by microdilution, S. aureus; format: cell-based; settings: Staphylococcus aureus; microdilution method
Source text: as §1, §2
Briefly, a concentration of 1 mM was prepared for each compound by dissolving in DMSO. Paper discs of standard size […] were sterilized in an autoclave and soaked in 9 µL of the test compounds, and placed in the Petri dishes, which in turn contain a nutrient media (agar 9 g, peptone 5 g, and beef extract 3 g) seeded with the dedicated strain. Incubation lasted for 13 h at 36 0C. […]

[1] = DPPH radical scavenging assay
Method: (§3) The antioxidant activities of the OSe compounds were intensively investigated because these are usually the cause of their chemopreventive potency. Their redox activities were evaluated via DPPH and ABTS assays, using ascorbic acid as the standard. We spectrophotometrically measured the antioxidant efficiency of the OSe compounds by their ability to decolorise the DPPH^. and ABTS^. radicals at […] (Figure 2).
(§4) The compounds’ antioxidant properties were assessed by in vitro bioassays using DPPH and ABTS, following the reported method. Details are in the Supplementary Materials.
(§5) Figure 4 Estimation of the OSe compounds’ redox activities via DPPH and ABTS experiments. All tests are mean ± S.D. ABTS experiment: absorbance was followed at 734 nm for OSe compounds (50 µL, 1 mM in MeOH) and ABTS solution (60 µL). DPPH Absorbance was monitored at 517 nm for OSe compounds (200 µL, 1 mM in MeOH) and DPPH (400 µL) after 30 min. […]
1.1.3. The antioxidant activity
1.1.3.1. The DPPH bioassay
The hydrogen atom or electron donation ability of the corresponding compounds was measured by estimating the bleaching of the purple color of a methanolic solution of DPPH [5]. This spectrophotometric assay uses stable DPPH. reagent. The sample was prepared by adding […] of the OSe compounds (1 mM in methanol) to […] DPPH in methanol. After 30 min of incubation in the dark, the absorbance was read against a blank at […]. Ascorbic acid (vitamin C) and ebselen were used as standard antioxidants (positive control). A blank sample was run without DPPH. A negative control sample was run using methanol instead of the sample. The radical scavenging activity was calculated using the following equation:
Inhibition%= (Ablank-Asample)/(Ablank)*100. […]

[2] = ABTS radical scavenging assay
Method: as §3, §4, §5
1.1.3.2. The ABTS bioassay
The antioxidant activity of the investigated compounds was assessed using 2,2’-azino-bis(3-ethylbenzothiazoline-6-sulphonic acid (ABTS) method. The radical cation derived from ABTS was prepared by the reaction of 60 mM ABTS solution with 0.3 M manganese dioxide solution in 0.1M phosphate buffer, pH 7. Then, the mixture was shaken, centrifuged, filtered, and the absorbance (Acontrol ) of […]
the resulting green-blue solution (ABTS radical solution) was measured at wavelength 734 nm. Then, […] of 1 mg/ml test compound in phosphate-buffered methanol was added. The absorbance (Atest) was measured. The reduction in color intensity was expressed as % inhibition. The % inhibition for each […]
compound is calculated from the following equation
Inhibition% = (Acontrol-Asample)/(Acontrol)*100
Ascorbic acid (vitamin C) was used as a standard antioxidant (positive control). A blank sample was run […]
without ABTS and using MeOH/phosphate buffer (1:1) instead of the sample. A negative control sample […]
was run with MeOH/phosphate buffer (1:1) instead of a tested compound.

With `Nc1ccc([Se]CC(=O)NOCc2ccccc2)cc1` [Compound 8, 2-((4-Aminophenyl)selanyl)-N-(benzyloxy)acetamide] the IC50 (WI-38 cells) was 27.4 ± 2.1 µM, the “E. coli ZID (inhibition zone diameter)” value (E. coli; 6-mm disks soaked with 20 μM of the OSe agents) was 16 mm and the “E. coli IA% (activity index)” value (E. coli; ratio of inhibition zone of compound to that of positive control (ampicillin)) was 69.6%. The MIC (S. aureus) was 4 µM (≈ 1.34 µg/mL), the “antioxidant (scavenging) activity in the DPPH assay” value ([1]; compounds 200 µL, 1 mM in MeOH, DPPH 400 µL, 30 min, absorbance at 517 nm) was 85.1% and 92.3% and the IC50 ([1]; concentration causing 50% decrease in absorbance, DPPH assay) was 23.67 ± 0.21 µM. For the same compound, the “antioxidant (scavenging) activity in the ABTS assay” value ([2]; compounds 50 µL, 1 mM in MeOH, ABTS solution 60 µL, absorbance at 734 nm) was 73.9% and the IC50 ([2]; concentration causing 50% decrease in absorbance, ABTS assay) was 27.24 ± 0.2 µM.
